How the values were obtained:
[1] = refractive index (Na D-line) (dimensionless); details: 101.33 kPa, Liquid
[2] = 101 kPa, Liquid; for speed of sound: Sing-around technique in a fixed-path interferometer
[3] = xn = mol fraction of the nth substance listed; details: 101 kPa, Liquid; for speed of sound: Sing-around technique in a fixed-path interferometer
[4] = refractive index (Na D-line) (dimensionless); xn = mol fraction of the nth substance listed; details: 101 kPa, Liquid

Cc1cc(C)cc(C)c1 [1,3,5-trimethylbenzene]
Details | mass density, 298.15 K [kg/m3] | mass density, 303.15 K [kg/m3] | mass density, 308.15 K [kg/m3] | refractive index, 298.15 K | refractive index, 303.15 K | refractive index, 308.15 K | speed of sound, 298.15 K [m/s] | viscosity, 298.15 K [mPa·s] | viscosity, 303.15 K [mPa·s] | viscosity, 308.15 K [mPa·s]
[1] | – | – | – | 1.496 | 1.4936 | 1.4913 | – | – | – | –
[2] | 861.2 | 857.1 | 853 | – | – | – | 1346 | 0.667 | 0.622 | 0.586

Cc1ccc(C)cc1 [1,4-dimethylbenzene]
Details | mass density, 298.15 K [kg/m3] | mass density, 303.15 K [kg/m3] | mass density, 308.15 K [kg/m3] | refractive index, 298.15 K | refractive index, 303.15 K | refractive index, 308.15 K | speed of sound, 298.15 K [m/s] | viscosity, 298.15 K [mPa·s] | viscosity, 303.15 K [mPa·s] | viscosity, 308.15 K [mPa·s]
[1] | – | – | – | 1.4926 | 1.4893 | 1.4867 | – | – | – | –
[2] | 856.7 | 852.3 | 848 | – | – | – | 1326 | 0.611 | 0.572 | 0.54

COc1ccccc1 [anisole]
Details | mass density, 298.15 K [kg/m3] | mass density, 303.15 K [kg/m3] | mass density, 308.15 K [kg/m3] | refractive index, 298.15 K | refractive index, 303.15 K | refractive index, 308.15 K | speed of sound, 298.15 K [m/s] | viscosity, 298.15 K [mPa·s] | viscosity, 303.15 K [mPa·s] | viscosity, 308.15 K [mPa·s]
[1] | – | – | – | 1.5136 | 1.5112 | 1.5088 | – | – | – | –
[2] | 989.2 | 984.5 | 979.8 | – | – | – | 1410 | 1.008 | 0.929 | 0.861

c1ccccc1 [benzene]
Details | mass density, 298.15 K [kg/m3] | mass density, 303.15 K [kg/m3] | mass density, 308.15 K [kg/m3] | refractive index, 298.15 K | refractive index, 303.15 K | refractive index, 308.15 K | speed of sound, 298.15 K [m/s] | viscosity, 298.15 K [mPa·s] | viscosity, 303.15 K [mPa·s] | viscosity, 308.15 K [mPa·s]
[1] | – | – | – | 1.4971 | 1.4936 | 1.4903 | – | – | – | –
[2] | 873.4 | 868.1 | 862.7 | – | – | – | 1302 | 0.602 | 0.56 | 0.523

CC1CCCCC1 [methylcyclohexane]
Details | mass density, 298.15 K [kg/m3] | mass density, 303.15 K [kg/m3] | mass density, 308.15 K [kg/m3] | refractive index, 298.15 K | refractive index, 303.15 K | refractive index, 308.15 K | speed of sound, 298.15 K [m/s] | viscosity, 298.15 K [mPa·s] | viscosity, 303.15 K [mPa·s] | viscosity, 308.15 K [mPa·s]
[1] | – | – | – | 1.4217 | 1.4192 | 1.4163 | – | – | – | –
[2] | 765 | 760.7 | 756.3 | – | – | – | 1217 | 0.676 | 0.631 | 0.59

CC1CCCCC1 [methylcyclohexane] + c1ccccc1
Details | mass density, 298.15 K [kg/m3] | mass density, 303.15 K [kg/m3] | mass density, 308.15 K [kg/m3] | refractive index, 298.15 K | refractive index, 303.15 K | refractive index, 308.15 K | speed of sound, 298.15 K [m/s] | viscosity, 298.15 K [mPa·s] | viscosity, 303.15 K [mPa·s] | viscosity, 308.15 K [mPa·s]
[3], x1 = 0.104 | 855.9 | 850.7 | 845.5 | – | – | – | 1293 | 0.584 | 0.546 | 0.509
[3], x1 = 0.2045 | 840.8 | 835.8 | 830.7 | – | – | – | 1284 | 0.566 | 0.53 | 0.494
[3], x1 = 0.302 | 827.6 | 822.7 | 817.8 | – | – | – | 1276 | 0.561 | 0.527 | 0.492
[3], x1 = 0.4006 | 815.8 | 811 | 806.2 | – | – | – | 1267 | 0.556 | 0.523 | 0.49
[3], x1 = 0.5007 | 805 | 800.3 | 795.6 | – | – | – | 1259 | 0.559 | 0.527 | 0.496
[3], x1 = 0.6004 | 795.3 | 790.6 | 786 | – | – | – | 1250 | 0.571 | 0.537 | 0.504
[3], x1 = 0.7056 | 785.9 | 781.4 | 776.8 | – | – | – | 1242 | 0.597 | 0.564 | 0.531
[3], x1 = 0.8033 | 778.5 | 774 | 769.5 | – | – | – | 1234 | 0.617 | 0.583 | 0.549
[3], x1 = 0.8982 | 771.4 | 767 | 762.6 | – | – | – | 1225 | 0.647 | 0.607 | 0.567
[3], x1 = 1 | 765 | 760.7 | 756.3 | – | – | – | 1217 | 0.676 | 0.631 | 0.59
[4], x1 = 0.104 | – | – | – | 1.484 | 1.481 | 1.4779 | – | – | – | –
[4], x1 = 0.2045 | – | – | – | 1.4728 | 1.4702 | 1.4675 | – | – | – | –
[4], x1 = 0.302 | – | – | – | 1.4628 | 1.4604 | 1.458 | – | – | – | –
[4], x1 = 0.4006 | – | – | – | 1.455 | 1.4524 | 1.4499 | – | – | – | –
[4], x1 = 0.5007 | – | – | – | 1.4475 | 1.4448 | 1.4422 | – | – | – | –
[4], x1 = 0.6004 | – | – | – | 1.441 | 1.4384 | 1.4357 | – | – | – | –
[4], x1 = 0.7056 | – | – | – | 1.4341 | 1.4316 | 1.4292 | – | – | – | –
[4], x1 = 0.8033 | – | – | – | 1.429 | 1.4262 | 1.4235 | – | – | – | –
[4], x1 = 0.8982 | – | – | – | 1.4245 | 1.4219 | 1.4192 | – | – | – | –
[4], x1 = 1 | – | – | – | 1.4217 | 1.4192 | 1.4163 | – | – | – | –

Cc1ccccc1 [toluene]
Details | mass density, 298.15 K [kg/m3] | mass density, 303.15 K [kg/m3] | mass density, 308.15 K [kg/m3] | refractive index, 298.15 K | refractive index, 303.15 K | refractive index, 308.15 K | speed of sound, 298.15 K [m/s] | viscosity, 298.15 K [mPa·s] | viscosity, 303.15 K [mPa·s] | viscosity, 308.15 K [mPa·s]
[1] | – | – | – | 1.4931 | 1.4902 | 1.4874 | – | – | – | –
[2] | 862.3 | 857.6 | 852.9 | – | – | – | 1314 | 0.559 | 0.526 | 0.497

Cc1ccccc1 [toluene] + CC1CCCCC1
x2 = 0
Details | mass density, 298.15 K [kg/m3] | mass density, 303.15 K [kg/m3] | mass density, 308.15 K [kg/m3] | refractive index, 298.15 K | refractive index, 303.15 K | refractive index, 308.15 K | speed of sound, 298.15 K [m/s] | viscosity, 298.15 K [mPa·s] | viscosity, 303.15 K [mPa·s] | viscosity, 308.15 K [mPa·s]
[3] | 862.3 | 857.6 | 852.9 | – | – | – | 1314 | 0.559 | 0.526 | 0.497
[4] | – | – | – | 1.4931 | 1.4902 | 1.4874 | – | – | – | –

From the NIST ThermoML archive (doi:10.1016/j.jct.2005.12.005)
